Patent US20070099821A1, “METHOD OF ACTIVATING INSULIN RECEPTOR SUBSTRATE-2 TO STIMULATE INSULIN PRODUCTION” (Sanofi-Aventis Deutschland GmbH, priority 2001, published 2007)

Assays:
INS-1 cells = assay: Cytokine-induced apoptosis in pancreatic β-cells (INS-1, nucleosomal release ELISA); assay type: cell-based, rat; details: IL-1β + IFN-γ, 24 h, IGF-I 10 nM, mean ± SEM of 4-5 experiments
Protocol: The rat insulinoma cell line INS-1 was grown in RPMI 1640 medium supplemented with 10% heat-inactivated fetal calf serum (FCS), 500 U/ml penicillin, 50 μg/ml streptomycin, 2 mmol/l glutamine and 50 μmol/l 2-mercaptoethanol and passaged by trypsinization. Functional integrity of the cells was confirmed by measuring glucose-stimulated insulin secretion. INS-1 cells were routinely seeded at 3.5×10^5 cells/well of a 12-well plate for cell death detection experiments and used on day 4 at 60-70% confluence.
Subconfluent INS-1 cells were incubated for 2 h in RPMI 1640 medium (Eggenstein, Germany) without FCS supplemented with 0.5% BSA. After this serum free period the medium was removed and replaced with fresh RPMI 1640 containing 5% FCS and 0.5% BSA. […] The induced apoptosis was measured by the specific determination of mono- and oligonucleosomes in the cytoplasmatic fraction of cell lysates using a cell death detection ELISA kit (Roche). The assay is based on a quantitative sandwich-enzyme-immunoassay-principle using mouse monoclonal anti-histone and anti-DNA peroxidase antibodies. The relative degree of apoptotic cell death was photometrically determined by measuring the peroxidase activity of the immunocomplexes at 405 nm. […]

K6 myoblasts = assay: DNA synthesis (BrdU incorporation) in K6 myoblasts; assay type: cell-based, rat; details: serum-starved K6 myoblasts, 16 h; FCS at 10%
Protocol: Effects of insulin, insulin analogs and IGF-I on the incorporation of 5-bromo-2′-deoxyuridine (BrdU) into DNA in K6 myoblasts. Myoblasts were serum-starved for 30 h in DMEM and subsequently incubated with BrdU in the absence (basal) or presence of the indicated concentrations of peptide hormones or fetal calf serum (FCS) for 16 h. Cells were fixed, denatured and the incorporation of BrdU was determined using an anti-BrdU antiserum and ECL detection. Data are mean values±SEM of four separate experiments.
For monitoring DNA synthesis, K6 myoblasts (1×10^4 cells/well) were seeded in 24-well microtiter tissue culture plates and were cultured for 24 h in DMEM containing 10% FCS, followed by a 30 h culture period under serum-free conditions. Cells were then stimulated with the different peptide hormones or 10% FCS for 16 h with the simultaneous addition of 5-bromo-2′-deoxyundine (BrdU). After removing the labeling mediums the cells were fixed and the DNA was denatured by addition of FixDenat (Boehringer Mannheim, Germany). Cells were then incubated with a peroxidase-conjugated anti-BrdU antiserum, and after addition of substrate the light emission was quantified on a Lumilmager work station.

For “IGF-I: insulin-like growth factor I, peptide hormone used as comparator”, the “Inhibition of cytokine-induced apoptosis” value (INS-1 cells) was 42 ± 2% and the “Increase in BrdU-incorporation / DNA synthesis, fold” value (K6 myoblasts) was 4 fold.
